Several values for one entry are separate records, joined by “and”; a condition that tells them apart may be missing. Identical values can stand only once.
What was measured:
Format in all cases: cell-based
P. putida KT2440 = assay: Effect of pHCA on the growth of Pseudomonas putida KT2440; conditions: pHCA 25 g/L
Protocol: (§1) Liquid cultures of these strains were grown in 10 mL of LB medium containing 0.25% glucose and 10 mM MgSO4 in 50 mL screw-capped, glass tubes at 30° C. and 200 rpm in an incubator shaker. In all subsequent media, pHCA was added from a 60 g/L stock solution, which was adjusted to pH 7.0 using KOH and then filter-sterilized. Samples of each culture were streaked on LB agar plates containing 0.25% glucose, 10 mM MgSO4 and 30 g/L pHCA and grown at 30° C. Individual colonies taken from these plates were grown to stationary phase at 30° C. in 10 mL of LB medium containing 0.5% glucose, 10 mM MgSO4 and 25 g/L pHCA in 50 mL screw-capped, glass tubes. These stationary phase cultures were diluted 1:25 in fresh LB medium containing 0.5% glucose, 10 mM MgSO4 and either 0 or 25 g/L pHCA and grown in 50 mL screw-capped, glass tubes at 30° C. and 200 rpm in an incubator shaker. Cell growth in these cultures was monitored by taking aliquots and measuring the OD at 600 nm of the culture or dilutions of the culture, which were made with LB medium. These OD measurements were used to calculate the doubling time and growth rate as a percentage of growth observed in test medium without pHCA.

P. putida NCIMB 9866 = assay: Effect of pHCA on the growth of Pseudomonas putida NCIMB 9866; conditions: pHCA 25 g/L
Protocol: as §1

E. coli TY1 (DGL430) = assay: Effect of pHCA and pHS on growth and fermentation of E. coli, shake flasks
Protocol: This study was done using E. coli TY1 (DGL430), a tyrosine overproducing strain obtained from OmniGene Bioproducts, Inc. (Cambridge, Mass.). This strain also produces phenylalanine. The seed culture of this strain was propagated in a medium consisting of MgSO4.7H2O (0.5 g/L), (NH4)2SO4 (4 g/L), MOPS (20.9 g/L) and 10 mL of phosphate solution. The pH of the seed medium was adjusted to pH 6.8 and then the medium was steam-sterilized. The phosphate solution contained KH2PO4 (57.3 g/L) and K2HPO4 (110.2 g/L) and was adjusted to pH 6.8. The following solutions were then aseptically added to the seed medium to give the final concentration given in parentheses: thiamine (1 mg/L), glucose (1 g/L), lactose (15 g/L), 5 mL of a trace element solution, and tetracycline (5 mg/L). The trace element solution contained citric acid (10 g/L), CaCl2.2H2O (1.5 g/L), FeSO4.7H2O (5 g/L), ZnSO4.7H2O (0.39 g/L) and CuSO4.5H2O (0.38 g/L). The seed medium was inoculated from a frozen pre-seed culture and was grown in 250 mL baffled flasks in an Innova 4000 incubator shaker (New Brunswick Scientific Co., Edison, N.J.), incubated at 35° C. and 300 rpm for 12–16 h. One milliliter of this seed culture was used to inoculate each of the test cultures.
The test medium was 50 mL of an aqueous solution containing: (NH4)2SO4 (4 g), 1 mL of phosphate solution, MgSO4.7H2O (0.5 g), and MOPS (20.9 g), with the pH adjusted to 7.0. After sterilization of this medium, thiamine (1 mg/L), 5 mL of trace element solution, glucose (2 g/L), lactose (15 g/L), IPTG (0.5 mM), and tetracycline (10 mg/L) were aseptically added to give the final concentration given in parentheses. The 250 mL baffled flasks containing 50 mL of the test medium were inoculated with the seed culture and were incubated at 35° C. and 300 rpm for 42 h in the incubator shaker. Samples of the culture were taken at various times and the optical density at 550 nm (OD550) was measured spectrophotometrically. The pH of these samples was also measured. After completion of the fermentation, the tyrosine and phenylalanine concentrations in the culture were measured using HPLC, as described supra.
This experiment was repeated using pHS in place of pHCA.

[1] = adapted cells, LB medium, 30° C.
[2] = percentage of growth without pHCA

Compound: O=C(O)C=Cc1ccc(O)cc1 [pHCA, para-hydroxycinnamic acid]
- Doubling Time (P. putida KT2440; [1]): 79 min
- Growth Rate, % (P. putida KT2440; [2]): 21%
- Doubling Time (P. putida NCIMB 9866; [1]): 105 min
- Growth Rate, % (P. putida NCIMB 9866; [2]): 18%
- OD 550 (E. coli TY1 (DGL430); 17.5 h, pHCA added 1.00 g/L (as sodium pHCA)): 2.47 and 2.41
- OD 550 (E. coli TY1 (DGL430); 17.5 h, pHCA added 2.00 g/L): 1.49 and 1.27
- OD 550 (E. coli TY1 (DGL430); 17.5 h, pHCA added 4.00 g/L): 0.20 and 0.22
- OD 550 (E. coli TY1 (DGL430); 17.5 h, pHCA added 8.00 g/L): 0.15
- OD 550 (E. coli TY1 (DGL430); 17.5 h, pHCA added 16.00 g/L): 0.19 and 0.13
- OD 550 (E. coli TY1 (DGL430); 29 h, pHCA added 1.00 g/L): 3.22 and 3.57
- OD 550 (E. coli TY1 (DGL430); 29 h, pHCA added 2.00 g/L): 1.77 and 1.47
- OD 550 (E. coli TY1 (DGL430); 29 h, pHCA added 4.00 g/L): 1.21 and 1.61
- OD 550 (E. coli TY1 (DGL430); 29 h, pHCA added 8.00 g/L): 0.16
- OD 550 (E. coli TY1 (DGL430); 29 h, pHCA added 16.00 g/L): 0.21 and 0.13
- OD 550 (E. coli TY1 (DGL430); 42 h, pHCA added 1.00 g/L): 3.37 and 3.48
- OD 550 (E. coli TY1 (DGL430); 42 h, pHCA added 2.00 g/L): 1.62 and 1.53
- Phe (E. coli TY1 (DGL430); 42 h, pHCA added 2.00 g/L): 95 mg/L
- Tyr (E. coli TY1 (DGL430); 42 h, pHCA added 2.00 g/L): 100 mg/L and 105 mg/L
- OD 550 (E. coli TY1 (DGL430); 42 h, pHCA added 4.00 g/L): 1.54 and 1.55
- Phe (E. coli TY1 (DGL430); 42 h, pHCA added 4.00 g/L): 15 mg/L and 20 mg/L
- Tyr (E. coli TY1 (DGL430); 42 h, pHCA added 4.00 g/L): 65 mg/L and 75 mg/L
- OD 550 (E. coli TY1 (DGL430); 42 h, pHCA added 8.00 g/L): 0.18 and 0.17
- Phe (E. coli TY1 (DGL430); 42 h, pHCA added 8.00 g/L): 10 mg/L
- Tyr (E. coli TY1 (DGL430); 42 h, pHCA added 8.00 g/L): 15 mg/L and 25 mg/L
- OD 550 (E. coli TY1 (DGL430); 42 h, pHCA added 16.00 g/L): 0.23 and 0.14
- Phe (E. coli TY1 (DGL430); 42 h, pHCA added 16.00 g/L): 5 mg/L
- Tyr (E. coli TY1 (DGL430); 42 h, pHCA added 16.00 g/L): 0 mg/L
- Phe (E. coli TY1 (DGL430); 42 h, phenylalanine in culture, pHCA added 1.00 g/L): 150 mg/L and 155 mg/L
- Tyr (E. coli TY1 (DGL430); 42 h, tyrosine in culture, pHCA added 1.00 g/L): 210 mg/L and 190 mg/L
- concentration at which complete inhibition of growth / no growth was observed (E. coli TY1 (DGL430); E. coli TY1 shake flask): 8 g/L
- concentration that inhibited cell growth (E. coli TY1 (DGL430); E. coli TY1 shake flask): 1 g/L

From patent US7157256B2, “Method for producing para-hydroxystyrene and other multifunctional aromatic compounds using two-phase extractive fermentation” (E. I. du Pont de Nemours and Company, priority 2003, dated 2007)
